For 31 compounds, inhibition results are on record in patent US20090264401A1, “SUBSTITUTED PYRIMIDIN-5-CARBOXAMIDES 281” (AstraZeneca AB, priority 2008, published 2009).

The term inhibition denotes the relative decrease from the control value, in per cent.

Structures are written as SMILES.

For the test, the target named is T1, human 11βHSD1 enzyme (Homo sapiens, UniProt P28845).
T1 construct: baculovirus expressed N terminal 6-His tagged full length human 11βHSD1 enzyme; 6-His (N); made in house
T1 sequence (P28845 whole entry): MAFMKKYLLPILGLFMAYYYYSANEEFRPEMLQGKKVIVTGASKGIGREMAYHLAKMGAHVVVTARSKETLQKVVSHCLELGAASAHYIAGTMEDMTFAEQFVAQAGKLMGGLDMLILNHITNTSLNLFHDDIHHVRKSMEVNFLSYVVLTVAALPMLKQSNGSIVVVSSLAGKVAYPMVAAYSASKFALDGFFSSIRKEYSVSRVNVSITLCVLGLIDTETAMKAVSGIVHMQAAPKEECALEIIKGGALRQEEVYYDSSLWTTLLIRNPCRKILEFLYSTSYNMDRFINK
As to the kind of experiment: 11βHSD1 cortisone to cortisol conversion, competitive HTRF assay. It is filed as biochemical. The conditions noted are these: human 11-βHSD; test concentration of 30 μM of compound. As to the method:
The evaluation of compounds described herein was carried out using a baculovirus expressed N terminal 6-His tagged full length human 11βHSD1 enzyme(*1). The enzyme was purified from a detergent solubilised cell lysate, using a copper chelate column. Inhibitors of 11βHSD1 reduce the conversion of cortisone to cortisol, which is identified by an increase in signal, in the above assay.
Compounds to be tested were dissolved in dimethyl sulphoxide (DMSO) to 10 mM and diluted further in assay buffer containing 1% DMSO to 10 fold the final assay concentration. Diluted compounds were then plated into black 384 well plates (Matrix, Hudson N.H., USA).
Fluorescence at 665 nm and 620 nm was measured and the 665 nm:620 nm ratio calculated using an Envision plate reader.
Consider `O=C(N[C@H]1C2CC3CC1C[C@@](O)(C3)C2)c1cnc(N2CCC2)nc1C1CCC1` [Example 85, 2-Azetidin-1-yl-4-cyclobutyl-N-[(2r,5s)-5-hydroxyadamantan-2-yl]pyrimidine-5-carboxamide], for which the inhibition at 30 µM amounted to 88.8%.

As for `CN(C)c1ncc(C(=O)N[C@H]2C3CC4CC2C[C@@](O)(C4)C3)c(C2CCC2)n1` [Example 86, 4-cyclobutyl-2-(dimethylamino)-N-[(2r,5s)-5-hydroxyadamantan-2-yl]pyrimidine-5-carboxamide], the inhibition at 30 µM was determined as 97%.

With `COCCN1CCN(c2ncc(C(=O)N[C@H]3C4CC5CC3C[C@@](O)(C5)C4)c(C3CCC3)n2)CC1` [Example 87, 4-cyclobutyl-N-[(2r,5s)-5-hydroxyadamantan-2-yl]-2-[4-(2-methoxyethyl)piperazin-1-yl]pyrimidine-5-carboxamide], the inhibition at 30 µM was found to be 95.7%.

On to `O=C(N[C@H]1C2CC3CC1C[C@@](O)(C3)C2)c1cnc(NC2CC2)nc1C1CCC1` [Example 88, 4-cyclobutyl-2-(cyclopropylamino)-N-[(2r,5s)-5-hydroxyadamantan-2-yl]pyrimidine-5-carboxamide], for which the inhibition at 30 µM turned out to be 94.9%.

For the compound `O=C(N[C@H]1C2CC3CC1C[C@@](O)(C3)C2)c1cnc(N2CC(F)(F)C2)nc1C1CCC1` [Example 89, 4-cyclobutyl-2-(3,3-difluoroazetidin-1-yl)-N-[(2r,5s)-5-hydroxyadamantan-2-yl]pyrimidine-5-carboxamide], the inhibition at 30 µM worked out at 95.5%.

Take `O=C(N[C@H]1C2CC3CC1C[C@@](O)(C3)C2)c1cnc(N2CCOCC2CO)nc1C1CCC1` (stereo partly shown) [Example 90, 4-cyclobutyl-N-[(2r,5s)-5-hydroxyadamantan-2-yl]-2-[3-(hydroxymethyl)morpholin-4-yl]pyrimidine-5-carboxamide]: the inhibition at 30 µM came out at 100%.

`CNc1ncc(C(=O)N[C@H]2C3CC4CC2C[C@@](O)(C4)C3)c(C2CCC2)n1` [Example 91, 4-cyclobutyl-N-[(2r,5s)-5-hydroxyadamantan-2-yl]-2-(methylamino)pyrimidine-5-carboxamide]: the inhibition at 30 µM came to 95.7%.

With `C[C@@H]1CN(c2ncc(C(=O)N[C@H]3C4CC5CC3C[C@@](O)(C5)C4)c(C3CCC3)n2)C[C@H](C)O1` [Example 92, 4-cyclobutyl-2-[(2R,6S)-2,6-dimethylmorpholin-4-yl]-N-[(2r,5s)-5-hydroxyadamantan-2-yl]pyrimidine-5-carboxamide], the inhibition at 30 µM was 97.1%.

Turning to `O=C(N[C@H]1C2CC3CC1C[C@@](O)(C3)C2)c1cnc(N2CCOC(CO)C2)nc1C1CCC1` (stereo partly shown) [Example 93, 4-cyclobutyl-N-[(2r,5s)-5-hydroxyadamantan-2-yl]-2-[2-(hydroxymethyl)morpholin-4-yl]pyrimidine-5-carboxamide], the inhibition at 30 µM was 93.1%.

As to `CC(C)Nc1ncc(C(=O)N[C@H]2C3CC4CC2C[C@@](O)(C4)C3)c(C2CCC2)n1` [Example 94, 4-cyclobutyl-N-[(2r,5s)-5-hydroxyadamantan-2-yl]-2-(isopropylamino)pyrimidine-5-carboxamide], the inhibition at 30 µM turned out to be 103%.

As for `CC(C)(CO)Nc1ncc(C(=O)N[C@H]2C3CC4CC2C[C@@](O)(C4)C3)c(C2CCC2)n1` [Example 95, 4-cyclobutyl-N-[(2r,5s)-5-hydroxyadamantan-2-yl]-2-[(2-hydroxy-1,1-dimethylethyl)amino]pyrimidine-5-carboxamide], the inhibition at 30 µM is 97.3%.

Consider `O=C(N[C@H]1C2CC3CC1C[C@@](O)(C3)C2)c1cnc(NC2CCOCC2)nc1C1CCC1` [Example 96, 4-cyclobutyl-N-[(2r,5s)-5-hydroxyadamantan-2-yl]-2-(tetrahydro-2H-pyran-4-ylamino)pyrimidine-5-carboxamide], for which the inhibition at 30 µM turned out to be 97.4%.

`O=C(N[C@H]1C2CC3CC1C[C@@](O)(C3)C2)c1cnc(NC2CCC2)nc1C1CCC1` [Example 98, N-[(2r,5s)-5-hydroxyadamantan-2-yl] 4-cyclobutyl-2-(cyclobutylamino)pyrimidine-5-carboxamide]: the inhibition at 30 µM came out at 97.8%.

`C[C@@H]1CN(c2ncc(C(=O)N[C@H]3C4CC5CC3C[C@@](O)(C5)C4)c(C3CCC3)n2)C[C@H](C)N1` [Example 99, 4-cyclobutyl-2-[(3R,5S)-3,5-dimethylpiperazin-1-yl]-N-[(2r,5s)-5-hydroxyadamantan-2-yl]pyrimidine-5-carboxamide]: the inhibition at 30 µM stood at 93.3%.

Turning to `C[C@@H]1CN(c2ncc(C(=O)N[C@H]3C4CC5CC3C[C@@](O)(C5)C4)c(C3CCC3)n2)C[C@@H](C)O1` [Example 101, 4-cyclobutyl-2-[(2R,6R)-2,6-dimethylmorpholin-4-yl]-N-[(2r,5s)-5-hydroxyadamantan-2-yl]pyrimidine-5-carboxamide], the inhibition at 30 µM was 102%.

As to `O=C(N[C@H]1C2CC3CC1C[C@@](O)(C3)C2)c1cnc(NC2CCCC2)nc1C1CCC1` [Example 102, 4-cyclobutyl-2-(cyclopentylamino)-N-[(2r,5s)-5-hydroxyadamantan-2-yl]pyrimidine-5-carboxamide], the inhibition at 30 µM amounted to 93.8%.

On to `O=C(NC1C2CC3CC1CC(O)(C3)C2)c1cnc(N2C[C@@H]3C[C@H]2CO3)nc1C1CCC1` (stereo partly drawn) [Example 103, 4-cyclobutyl-N-[(2r,5s)-5-hydroxyadamantan-2-yl]-2-[(1S,4S)-2-oxa-5-azabicyclo[2.2.1]hept-5-yl]pyrimidine-5-carboxamide], for which the inhibition at 30 µM turned out to be 95.7%.

On to `O=C(N[C@H]1C2CC3CC1C[C@@](O)(C3)C2)c1cnc(NC2COC2)nc1C1CCC1` [Example 104, 4-cyclobutyl-N-[(2r,5s)-5-hydroxyadamantan-2-yl]-2-(oxetan-3-ylamino)pyrimidine-5-carboxamide], for which the inhibition at 30 µM was found to be 99.3%.

`O=C(N[C@H]1C2CC3CC1C[C@@](O)(C3)C2)c1cnc(OC2CCCC2)nc1C1CCC1` [Example 106, 4-cyclobutyl-2-(cyclopentyloxy)-N-[(2r,5s)-5-hydroxyadamantan-2-yl]pyrimidine-5-carboxamide]: the inhibition at 30 µM was determined as 101%.

`CC(C)Oc1ncc(C(=O)N[C@H]2C3CC4CC2C[C@@](O)(C4)C3)c(C2CCC2)n1` [Example 107, 4-cyclobutyl-N-[(2r,5s)-5-hydroxyadamantan-2-yl]-2-isopropoxypyrimidine-5-carboxamide]: the inhibition at 30 µM is 97.3%.

Turning to `O=C(N[C@H]1C2CC3CC1C[C@@](O)(C3)C2)c1cnc(OC2CCC2)nc1C1CCC1` [Example 108, 4-cyclobutyl-2-(cyclobutyloxy)-N-[(2r,5s)-5-hydroxyadamantan-2-yl]pyrimidine-5-carboxamide], the inhibition at 30 µM was 96%.

In the case of `O=C(N[C@H]1C2CC3CC1C[C@@](O)(C3)C2)c1cnc(OC2COC2)nc1C1CCC1` [Example 109, 4-cyclobutyl-N-[(2r,5s)-5-hydroxyadamantan-2-yl]-2-(oxetan-3-yloxy)pyrimidine-5-carboxamide], the inhibition at 30 µM is 90.3%.

For the compound `CC(C)Oc1ncc(C(=O)N[C@H]2C3CC4CC2C[C@@](O)(C4)C3)c(C2CCCC2)n1` [Example 110, 4-cyclopentyl-N-[(2r,5s)-5-hydroxyadamantan-2-yl]-2-propan-2-yloxypyrimidine-5-carboxamide], the inhibition at 30 µM was 100%.

For `O=C(N[C@H]1C2CC3CC1C[C@@](O)(C3)C2)c1cnc(OC2CCC2)nc1C1CCCC1` [Example 111, 2-cyclobutyloxy-4-cyclopentyl-N-[(2r,5s)-5-hydroxyadamantan-2-yl]pyrimidine-5-carboxamide], the inhibition at 30 µM turned out to be 108%.

Regarding `O=C(N[C@H]1C2CC3CC1C[C@@](O)(C3)C2)c1cnc(OC2CCCC2)nc1C1CCCC1` [Example 112, 4-cyclopentyl-2-cyclopentyloxy-N-[(2r,Ss)-5-hydroxyadamantan-2-yl]pyrimidine-5-carboxamide], the inhibition at 30 µM was 104%.

For `O=C(N[C@H]1C2CC3CC1C[C@@](O)(C3)C2)c1cnc(OC2COC2)nc1C1CCCC1` [Example 113, 4-cyclopentyl-N-[(2r,5s)-5-hydroxyadamantan-2-yl]-2-(oxetan-3-yloxy)pyrimidine-5-carboxamide], the inhibition at 30 µM turned out to be 98.4%.

For the compound `O=C(N[C@H]1C2CC3CC1C[C@@](O)(C3)C2)c1cnc(N2CCSCC2)nc1C1CCCC1` [Example 114, 4-Cyclopentyl-N-[(2s,5r)-5-hydroxyadamantan-2-yl]-2-thiomorpholin-4-ylpyrimidine-5-carboxamide], the inhibition at 30 µM turned out to be 106%.

Consider `O=C(N[C@H]1C2CC3CC1C[C@@](O)(C3)C2)c1cnc(N2CC[S+]([O-])CC2)nc1C1CCCC1` [Example 115, 4-Cyclopentyl-N-[(2r,5 s)-5-hydroxyadamantan-2-yl]-2-(1-oxo-1,4-thiazinan-4-yl)pyrimidine-5-carboxamide], for which the inhibition at 30 µM amounted to 93.4%.

Regarding `O=C(N[C@H]1C2CC3CC1C[C@@](O)(C3)C2)c1cnc(N2CCS(=O)(=O)CC2)nc1C1CCCC1` [Example 116, 4-Cyclopentyl-2-(1,1-dioxo-1,4-thiazinan-4-yl)-N-[(2r,5s)-5-hydroxyadamantan-2-yl]pyrimidine-5-carboxamide], the inhibition at 30 µM was 98.1%.

`COc1ncc(C(=O)N[C@H]2C3CC4CC2C[C@@](O)(C4)C3)c(C2CCCC2)n1` [Example 117, 4-cyclopentyl-N-[(2r,5s)-5-hydroxyadamantan-2-yl]-2-methoxypyrimidine-5-carboxamide]: the inhibition at 30 µM amounted to 97.4%.

Take `CNc1ncc(C(=O)N[C@H]2C3CC4CC2C[C@@](O)(C4)C3)c(C2CCCC2)n1` [Example 118, 4-cyclopentyl-N-[(2r,5s)-5-hydroxyadamantan-2-yl]-2-methylaminopyrimidine-5-carboxamide]: the inhibition at 30 µM stood at 93.7%.
